Read-outs that look alike come from different tables or passages of the source.
Assays:
Format in all cases: in vivo
Geranium pusillum [1] = test: Greenhouse post-emergence (POST) herbicidal test on GERPU; conditions: Geranium pusillum, post-emergence; for inhibition at 2 g/ha: use rate 2 gai/ha, read-out: % activity
In short: (§1)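 Sow or transplant seedlings into loamy-sand pots; grow to 3–15 cm; spray aqueous suspension/emulsion of actives from a 5% by weight emulsion concentrate; hold at 10-25° C or 20-35° C depending on species; score injury 0–100 at 20 DAT.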

Geranium pusillum [2] = test: Greenhouse pre-emergence (PRE) herbicidal test on GERPU; conditions: Geranium pusillum, pre-emergence, use rate 8 gai/ha
In short: (§2)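 Herbicidal effect is scored from 0 (no damage) to 100 (no emergence or above-ground parts destroyed), 20 days after treatment. Application is pre-emergent onto sown pots, with components given as a 5% by weight emulsion concentrate in the spray liquor.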

Galium aparine = test: Greenhouse pre-emergence (PRE) herbicidal test on GALAP; conditions: Galium aparine, pre-emergence; PRE; GALAP; use rate 8 gai/ha
In short: as §2

Digitaria sanguinalis = test: Greenhouse post-emergence (POST) herbicidal test on DIGSA; conditions: Digitaria sanguinalis, post-emergence, POST
In short: as §1

Abutilon theophrasti = test: Greenhouse pre-emergence (PRE) herbicidal test on ABUTH; conditions: Abutilon theophrasti, pre-emergence
In short: (§3)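 Pre-emergence greenhouse assay: sown loamy-sand pots (humus approx. 3.0%) were kept under transparent hoods until rooting, then grown at species-appropriate 10-25° C or 20-35° C. Response ratings of 0 (no damage) to 100 (no plants emerged) were recorded 20 days after application.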

Lolium multiflorum = test: Greenhouse pre-emergence (PRE) herbicidal test on LOLMU
In short: as §3

Ipomoea hederacea = test: Greenhouse post-emergence (POST) herbicidal test on IPOHE; conditions: Ipomoea hederacea, post-emergence
In short: as §1

## COc1c(Br)cc(F)c(F)c1Nc1nc(N)nc(C(C)(C)F)n1 [Compound I-2]
Geranium pusillum [1]; 480 h, GERPU POST, 20 DAT
  inhibition at 2 g/ha: 20%
Geranium pusillum [1]; 480 h, POST, 2 gai/ha, 20 DAT
  pest or weed control at 2 g/ha: 20%
Geranium pusillum [1]; 480 h, POST, 8 gai/ha, 20 DAT
  pest or weed control at 8 g/ha: 25%
Geranium pusillum [1]; POST, GERPU
  inhibition at 2 g/ha: 30%
Geranium pusillum [2]; 480 h, PRE, GERPU, 20 DAT
  inhibition at 8 g/ha: 80%
Geranium pusillum [2]; GERPU PRE
  inhibition at 8 g/ha: 0%
Geranium pusillum [2]; PRE, GERPU
  inhibition at 8 g/ha: 0%
Galium aparine
  inhibition at 8 g/ha: 15%
Digitaria sanguinalis; 432 h, DIGSA, I-2 solo 2 gai/ha, 18 DAT
  pest or weed control at 2 g/ha: 0%
Digitaria sanguinalis; 480 h, 8 gai/ha, 20 DAT
  pest or weed control at 8 g/ha: 65%
Digitaria sanguinalis; 480 h, DIGSA, 2 gai/ha, 20 DAT, read-out: % activity solo application
  inhibition at 2 g/ha: 0%
Digitaria sanguinalis; 480 h, DIGSA, 8 gai/ha, 20 DAT, read-out: % activity solo application
  inhibition at 8 g/ha: 20%
Digitaria sanguinalis; 480 h, DIGSA, use rate 2 gai/ha, 20 DAT, read-out: solo application % activity
  inhibition at 2 g/ha: 0%
Digitaria sanguinalis; 480 h, DIGSA, use rate 8 gai/ha, 20 DAT, read-out: solo application % activity
  inhibition at 8 g/ha: 20%
Abutilon theophrasti; 432 h, PRE, ABUTH, I-2 solo 2 gai/ha, 18 DAT
  pest or weed control at 2 g/ha: 30%
Abutilon theophrasti; 432 h, PRE, ABUTH, I-2 solo 8 gai/ha, 18 DAT
  pest or weed control at 8 g/ha: 50%
Abutilon theophrasti; 480 h, ABUTH PRE, 20 DAT, use rate 8 gai/ha, read-out: % activity
  inhibition at 8 g/ha: 65%
Abutilon theophrasti; 480 h, PRE, 2 gai/ha, 20 DAT
  pest or weed control at 2 g/ha: 10%
Abutilon theophrasti; 480 h, PRE, 8 gai/ha, 20 DAT
  pest or weed control at 8 g/ha: 65%
Abutilon theophrasti; 480 h, PRE, ABUTH, 2 gai/ha, 20 DAT, read-out: % activity solo application
  inhibition at 2 g/ha: 10%
Abutilon theophrasti; 480 h, PRE, ABUTH, 8 gai/ha, 20 DAT, read-out: % activity solo application
  inhibition at 8 g/ha: 55%
Abutilon theophrasti; 480 h, PRE, ABUTH, use rate 8 gai/ha, 20 DAT, read-out: solo application % activity
  inhibition at 8 g/ha: 55%
Abutilon theophrasti; ABUTH PRE, use rate 2 gai/ha, read-out: % activity
  inhibition at 2 g/ha: 20%
Abutilon theophrasti; PRE, ABUTH, use rate 2 gai/ha, read-out: % activity
  inhibition at 2 g/ha: 20%
Lolium multiflorum; LOLMU PRE, use rate 2 gai/ha
  % activity: 30%
Lolium multiflorum; Lolium multiflorum, pre-emergence, 432 h, PRE, LOLMU, I-2 solo 2 gai/ha, 18 DAT, read-out: % activity
  pest or weed control at 2 g/ha: 0%
Lolium multiflorum; Lolium multiflorum, pre-emergence, 432 h, PRE, LOLMU, I-2 solo 8 gai/ha, 18 DAT
  pest or weed control at 8 g/ha: 30%
Lolium multiflorum; Lolium multiflorum, pre-emergence, 480 h, LOLMU PRE, 20 DAT, use rate 2 gai/ha, read-out: % activity
  inhibition at 2 g/ha: 10%
Lolium multiflorum; Lolium multiflorum, pre-emergence, 480 h, LOLMU PRE, 20 DAT, use rate 8 gai/ha, read-out: % activity
  inhibition at 8 g/ha: 15%
Lolium multiflorum; Lolium multiflorum, pre-emergence, 480 h, PRE, 2 gai/ha, 20 DAT, read-out: % activity
  pest or weed control at 2 g/ha: 10%
Lolium multiflorum; Lolium multiflorum, pre-emergence, 480 h, PRE, LOLMU, 2 gai/ha, 20 DAT, read-out: % activity solo application
  inhibition at 2 g/ha: 15%
Lolium multiflorum; Lolium multiflorum, pre-emergence, 480 h, PRE, LOLMU, 8 gai/ha, 20 DAT, read-out: % activity solo application
  inhibition at 8 g/ha: 90%
Lolium multiflorum; Lolium multiflorum, pre-emergence, 480 h, PRE, LOLMU, use rate 2 gai/ha, 20 DAT, read-out: solo application % activity
  inhibition at 2 g/ha: 15%
Lolium multiflorum; Lolium multiflorum, pre-emergence, 480 h, PRE, use rate 2 gai/ha, 20 DAT, read-out: % activity
  inhibition at 2 g/ha: 20%
Lolium multiflorum; Lolium multiflorum, pre-emergence, 480 h, PRE, use rate 8 gai/ha, 20 DAT, read-out: % activity
  inhibition at 8 g/ha: 85%
Lolium multiflorum; Lolium multiflorum, pre-emergence, LOLMU PRE, use rate 2 gai/ha, read-out: % activity
  inhibition at 2 g/ha: 35%
Lolium multiflorum; Lolium multiflorum, pre-emergence, PRE, LOLMU, use rate 2 gai/ha, read-out: % activity
  inhibition at 2 g/ha: 40%
Lolium multiflorum; Lolium multiflorum, pre-emergence, PRE, LOLMU, use rate 8 gai/ha, read-out: % activity
  inhibition at 8 g/ha: 60%
Ipomoea hederacea; 480 h, IPOHE POST, 20 DAT, use rate 2 gai/ha, read-out: % activity
  inhibition at 2 g/ha: 30%
Ipomoea hederacea; 480 h, IPOHE POST, 20 DAT, use rate 8 gai/ha, read-out: % activity
  inhibition at 8 g/ha: 80%
Ipomoea hederacea; 480 h, POST, 2 gai/ha, 20 DAT
  pest or weed control at 2 g/ha: 30%
Ipomoea hederacea; 480 h, POST, 8 gai/ha, 20 DAT
  pest or weed control at 8 g/ha: 80%
Ipomoea hederacea; 480 h, POST, IPOHE, 2 gai/ha, 20 DAT, read-out: % activity solo application
  inhibition at 2 g/ha: 30%
Ipomoea hederacea; 480 h, POST, IPOHE, use rate 2 gai/ha, 20 DAT, read-out: % activity
  inhibition at 2 g/ha: 10%
Ipomoea hederacea; 480 h, POST, IPOHE, use rate 4 gai/ha, 20 DAT
  inhibition at 4 g/ha: 35%
Ipomoea hederacea; POST, IPOHE, use rate 2 gai/ha, read-out: % activity
  inhibition at 2 g/ha: 30%

From patent US20260007133A1, “HERBICIDAL COMPOSITION COMPRISING AZINE COMPOUNDS” (BASF SE, priority 2022, published 2026)
